Assay results from PubChem BioAssay AID1259407 (Chemical Carcinogenesis Research Information System (CCRIS), 2018).
Calls of active or inactive are those of the source. How the calls were made is not given here.

Tested on: CCRIS mutagenicity, Ames/micronucleus/aberration tests
Assay: CCRIS mutagenicity studies
[1] = Test System: AMES SALMONELLA TYPHIMURIUM, Strain/Indicator: TA100, Metabolic Activation: RAT, LIVER, S-9, AROCLOR 1254, Method: PREINCUBATION
[2] = Test System: AMES SALMONELLA TYPHIMURIUM, Strain/Indicator: TA98, Metabolic Activation: NONE, Method: PREINCUBATION

Measured: mutagenic call

CCSCCSP(=O)(OC)OC
inactive: Test System: AMES SALMONELLA TYPHIMURIUM, Strain/Indicator: TA97A, Metabolic Activation: NONE, Method: STANDARD PLATE inactive; negative | Test System: AMES SALMONELLA TYPHIMURIUM, Strain/Indicator: TA97A, Metabolic Activation: PLANT, HOMOGENATE, S-14, Method: STANDARD PLATE inactive; negative | Test System: AMES SALMONELLA TYPHIMURIUM, Strain/Indicator: TA97A, Metabolic Activation: S-9, Method: STANDARD PLATE inactive; negative | Test System: AMES SALMONELLA TYPHIMURIUM, Strain/Indicator: TA98, Metabolic Activation: NONE, Method: STANDARD PLATE inactive; negative | Test System: AMES SALMONELLA TYPHIMURIUM, Strain/Indicator: TA98, Metabolic Activation: PLANT, HOMOGENATE, S-14, Method: STANDARD PLATE inactive; negative | Test System: AMES SALMONELLA TYPHIMURIUM, Strain/Indicator: TA98, Metabolic Activation: RAT, LIVER, S-9, Method: STANDARD PLATE inactive; negative | Test System: AMES SALMONELLA TYPHIMURIUM, Strain/Indicator: TA98, Metabolic Activation: S-9, Method: STANDARD PLATE inactive; negative | Test System: AMES SALMONELLA TYPHIMURIUM, Strain/Indicator: TA98, Metabolic Activation: WHEAT SEEDLING, S-14, Method: STANDARD PLATE inactive; negative | Test System: AMES SALMONELLA TYPHIMURIUM, Strain/Indicator: TA100, Metabolic Activation: NONE, Method: STANDARD PLATE inactive; negative | Test System: AMES SALMONELLA TYPHIMURIUM, Strain/Indicator: TA100, Metabolic Activation: PLANT, HOMOGENATE, S-14, Method: STANDARD PLATE inactive; negative | Test System: AMES SALMONELLA TYPHIMURIUM, Strain/Indicator: TA100, Metabolic Activation: S-9, Method: STANDARD PLATE inactive; negative | Test System: AMES SALMONELLA TYPHIMURIUM, Strain/Indicator: TA102, Metabolic Activation: NONE, Method: STANDARD PLATE inactive; negative | Test System: AMES SALMONELLA TYPHIMURIUM, Strain/Indicator: TA102, Metabolic Activation: RAT, LIVER, S-9, Method: STANDARD PLATE inactive; negative | Test System: AMES SALMONELLA TYPHIMURIUM, Strain/Indicator: TA102, Metabolic Activation: WHEAT SEEDLING, S-14, Method: STANDARD PLATE inactive; negative | Test System: AMES SALMONELLA TYPHIMURIUM, Strain/Indicator: TA1535, Metabolic Activation: NONE, Method: STANDARD PLATE inactive; negative | Test System: AMES SALMONELLA TYPHIMURIUM, Strain/Indicator: TA1535, Metabolic Activation: PLANT, HOMOGENATE, S-14, Method: STANDARD PLATE inactive; negative | Test System: AMES SALMONELLA TYPHIMURIUM, Strain/Indicator: TA1535, Metabolic Activation: RAT, LIVER, S-9, Method: STANDARD PLATE inactive; negative | Test System: AMES SALMONELLA TYPHIMURIUM, Strain/Indicator: TA1535, Metabolic Activation: S-9, Method: STANDARD PLATE inactive; negative | Test System: AMES SALMONELLA TYPHIMURIUM, Strain/Indicator: TA1535, Metabolic Activation: WHEAT SEEDLING, S-14, Method: STANDARD PLATE inactive; negative

Oc1ccc2cc3c4ccccc4c4ccccc4c3cc2c1
active: [1] active; positive

CNS(=O)(=O)c1ccc(N)cc1
inactive: [2] inactive; negative | Test System: AMES SALMONELLA TYPHIMURIUM, Strain/Indicator: TA98, Metabolic Activation: RAT, LIVER, S-9, AROCLOR 1254, Method: PREINCUBATION inactive; negative | Test System: AMES SALMONELLA TYPHIMURIUM, Strain/Indicator: TA100, Metabolic Activation: NONE, Method: PREINCUBATION inactive; negative | [1] inactive; negative

[N-]=[N+]=Nc1ccc2c(Nc3ccc(C(=O)O)cc3)c3ccccc3nc2c1
active: Test System: AMES SALMONELLA TYPHIMURIUM, Strain/Indicator: TA1537, Metabolic Activation: NONE, Method: STANDARD PLATE active; positive

CNC(=O)CN(CCN(CCN(CC(=O)O)CC(=O)NC)CC(=O)O)CC(=O)O
inactive: Test System: AMES SALMONELLA TYPHIMURIUM, Strain/Indicator: TA98, Metabolic Activation: NONE inactive; negative | Test System: AMES SALMONELLA TYPHIMURIUM, Strain/Indicator: TA98, Metabolic Activation: RAT, LIVER, S-9, AROCLOR 1254 inactive; negative | Test System: AMES SALMONELLA TYPHIMURIUM, Strain/Indicator: TA100, Metabolic Activation: NONE inactive; negative | Test System: AMES SALMONELLA TYPHIMURIUM, Strain/Indicator: TA100, Metabolic Activation: RAT, LIVER, S-9, AROCLOR 1254 inactive; negative | Test System: AMES SALMONELLA TYPHIMURIUM, Strain/Indicator: TA1535, Metabolic Activation: NONE inactive; negative | Test System: AMES SALMONELLA TYPHIMURIUM, Strain/Indicator: TA1535, Metabolic Activation: RAT, LIVER, S-9, AROCLOR 1254 inactive; negative | Test System: AMES SALMONELLA TYPHIMURIUM, Strain/Indicator: TA1537, Metabolic Activation: NONE inactive; negative | Test System: AMES SALMONELLA TYPHIMURIUM, Strain/Indicator: TA1537, Metabolic Activation: RAT, LIVER, S-9, AROCLOR 1254 inactive; negative | Test System: CHINESE HAMSTER OVARY, Strain/Indicator: CHO-K1-BH4 (HGPRT)/6-THIOGUANINE, Metabolic Activation: NONE inactive; negative | Test System: CHINESE HAMSTER OVARY, Strain/Indicator: CHO-K1-BH4 (HGPRT)/6-THIOGUANINE, Metabolic Activation: RAT, LIVER, S-9, AROCLOR 1254 inactive; negative | Test System: E.COLI, Strain/Indicator: WP2 UVRA, Metabolic Activation: NONE inactive; negative | Test System: E.COLI, Strain/Indicator: WP2 UVRA, Metabolic Activation: RAT, LIVER, S-9, AROCLOR 1254 inactive; negative

Cc1ccc(N=Nc2ccc(C)c(N)c2)cc1N
active: Test System: AMES SALMONELLA TYPHIMURIUM, Strain/Indicator: TA98, Metabolic Activation: RAT, LIVER, S-9, PCB, Method: PREINCUBATION active; positive | Test System: AMES SALMONELLA TYPHIMURIUM, Strain/Indicator: TA98, Metabolic Activation: RAT, LIVER, S-9, PHENOBARBITAL AND 5,6-BENZOFLAVONE, Method: SUSPENSION/PLATE active; positive | Test System: AMES SALMONELLA TYPHIMURIUM, Strain/Indicator: TA100, Metabolic Activation: RAT, LIVER, S-9, PHENOBARBITAL AND 5,6-BENZOFLAVONE, Method: SUSPENSION/PLATE active; positive
inactive: [2] inactive; negative | Test System: AMES SALMONELLA TYPHIMURIUM, Strain/Indicator: TA98, Metabolic Activation: NONE, Method: SUSPENSION/PLATE inactive; negative | Test System: AMES SALMONELLA TYPHIMURIUM, Strain/Indicator: TA100, Metabolic Activation: NONE, Method: SUSPENSION/PLATE inactive; negative
